This is an account of results in patent US20110207744A1, “Method for treating cognitive deficits” (H. Lundbeck A/S, priority 2008, published 2011).

One experiment deals with D2 receptor (Homo sapiens, UniProt P14416). Description: PET study, D2 receptor occupancy (11C-raclopride tracer). In kind it is in vivo. The settings on record: healthy subjects, read-out: D2 receptor occupancy in the putamen.
A further experiment concerns the target dopamine D2 receptors (Homo sapiens, UniProt P14416). The settings on record: WO 2005/016900; cited from earlier work.
The target in the next experiment is D1 receptor (Homo sapiens, UniProt P21728). Description: PET study, D1 receptor occupancy (11C-SCH23390 tracer). It counts as in vivo. The following applies: healthy subjects, read-out: D1 receptor occupancy in putamen.
The next experiment concerns 5-HT2 receptor. The following applies: WO 2005/016900; cited from earlier work.
The next experiment deals with dopamine D1 receptors (Homo sapiens, UniProt P21728). The settings on record: WO 2005/016900; cited from earlier work.
A further experiment deals with α1 adrenoceptors. The following applies: WO 2005/016900; cited from earlier work.
Experiment [1] deals with subchronic PCP treated rats. Description: attentional set-shifting in subchronic PCP rat disease model (executive functioning). The following applies: for EDS discrimination performance (trials to criterion) vs PCP+vehicle group: 30 min before test. In kind it is in vivo.
From the text: The attentional set-shifting paradigm is an animal model which allows assessment of executive functioning via intra-dimensional (ID) versus extra-dimensional (ED) shift discrimination learning. A schizophrenia-disease-like animal model with subchronic phencyclidine (PCP) administration plus washout period is applied.
Accordingly, the cognitive enhancing properties of a compound can be investigated by testing whether the compound is attenuating the “attentional performance impairment” induced by subchronic PCP administration in rats.
Methodology. In vivo assessment of “attentional set-shifting performance” was conducted as described by Rodefer et al. (Eur. J. Neurosci. 21:1070-1076 (2005)), and was based on a modified version of the task designed by Birrell & Brown (J. Neurosci. 20:4320-4324 (2000)). Briefly, Male Long-Evans rats (Harlan, Indianapolis, Ind.) weighing approximately 250 g at the beginning of the study in four groups (n=12 each group) were used. After habituating to the colony room environment, rats received a series of subchronic injections of PCP (5 mg/kg, i.p.) or saline twice daily for 7 days, followed by a washout period of 10 days before beginning the set-shifting procedure in which animals were required to dig in a pot to retrieve a food reward (half of a Honey Nut Cheerio® (General Mills, Minneapolis, Minn., USA)) using either digging medium or scented odor as the dimensional cue. The test chamber was a Plexiglas® box (50×37.5×25 cm) with an opaque barrier separating one-third of the box from the rest (along the long axis of the box). […]
Habituation was performed for several days before testing; a pot filled with wood chip bedding used in the rats' home cages and baited with several Cheerios® was placed in each rat's cage, to accustom them to retrieving food rewards from the pots. […] The rats therefore could investigate the digging medium with paws or snout before executing a “dig” response, and these choices were not scored. […]
The subject of experiment [2] is sub-chronic PCP treated rats. Put plainly: novel object recognition (NOR) test in sub-chronic PCP treated rats. In kind it is in vivo, rat. The procedure: The NOR test was performed as described in the above cited reference (Grayson 2007).
Acquisition trial. […] Data are expressed as mean±s.e.m. (n=9-10 per group) and were analysed by ANOVA and post-hoc student's t-test.
Retention trial. […] Data are expressed as mean±s.e.m. (n=9-10 per group) and were analysed by ANOVA and post-hoc student's t-test.
Data are expressed as the mean±s.e.m. (n=9-10 per group) and were analysed using ANOVA followed by post-hoc Dunnett's t-test.
Locomotor activity. […] Data are expressed as mean±s.e.m (n=9-10 per group) and were analysed by ANOVA and post-hoc Dunnett's t-test.

The subject of the next experiment is rats. Put plainly: condition avoidance response (CAR) model. It counts as in vivo, rat. The following applies: at very low levels of D2 receptor occupancy. The source says:
The compound of formula I is a putative antipsychotic compound with affinity for both dopamine D1 and D2 receptors.

Experiment [3] relates to subchronic PCP treated rats. The following applies: given acutely; Rodefer et al. (2008); cited from earlier work.
Where [4] appears, read: 2 mg/day given daily for 18 days.
Setting [5] is: 10 mg/day given daily for 18 days.

Chain of D1 receptor (P21728 whole entry): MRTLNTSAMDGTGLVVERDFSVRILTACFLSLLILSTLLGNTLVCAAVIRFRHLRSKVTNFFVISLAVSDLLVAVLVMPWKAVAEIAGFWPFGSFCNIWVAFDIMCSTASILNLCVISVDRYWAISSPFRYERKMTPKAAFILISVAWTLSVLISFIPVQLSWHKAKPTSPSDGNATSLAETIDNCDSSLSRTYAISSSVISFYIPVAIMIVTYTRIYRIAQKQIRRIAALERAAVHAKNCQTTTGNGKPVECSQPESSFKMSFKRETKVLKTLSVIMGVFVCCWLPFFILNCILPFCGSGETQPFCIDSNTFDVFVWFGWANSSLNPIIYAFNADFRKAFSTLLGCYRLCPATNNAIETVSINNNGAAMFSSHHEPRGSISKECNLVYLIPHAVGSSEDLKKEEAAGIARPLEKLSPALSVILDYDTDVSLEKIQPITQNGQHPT
Chain of D2 receptor (P14416 whole entry): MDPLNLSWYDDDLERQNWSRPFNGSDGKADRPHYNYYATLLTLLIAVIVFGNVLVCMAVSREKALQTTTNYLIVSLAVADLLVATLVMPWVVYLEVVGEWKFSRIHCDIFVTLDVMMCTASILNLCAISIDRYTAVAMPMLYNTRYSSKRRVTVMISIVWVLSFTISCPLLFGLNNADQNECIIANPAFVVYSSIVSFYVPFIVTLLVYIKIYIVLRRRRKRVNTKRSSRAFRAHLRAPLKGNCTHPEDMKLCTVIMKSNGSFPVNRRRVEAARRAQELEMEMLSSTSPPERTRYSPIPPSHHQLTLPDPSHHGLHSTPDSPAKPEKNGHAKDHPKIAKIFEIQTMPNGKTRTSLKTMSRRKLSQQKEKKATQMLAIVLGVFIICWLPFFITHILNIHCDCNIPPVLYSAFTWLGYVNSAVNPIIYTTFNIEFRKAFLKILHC
Chain of dopamine D1 receptors (P21728 whole entry): as the sequence (P21728 whole entry) above
Chain of dopamine D2 receptors (P14416 whole entry): as the sequence (P14416 whole entry) above

For the molecule `CN1CCN([C@@H]2C[C@@H](c3ccccc3)c3ccc(Cl)cc32)CC1(C)C` [Compound I, trans-4-((1R,3S)-6-chloro-3-phenylindan-1-yl)-1,2,2-trimethylpiperazine], the receptor occupancy at 2 mg at D2 receptor (setting [4]) turned out to be 11%; at D1 receptor (setting [4]) it was 32%. Also, the figures for the receptor occupancy at 10 mg at D2 receptor (setting [5]) and on D1 receptor (setting [5]) were 43% and 69%, respectively. Besides, the “affinity for dopamine D2 receptors (antagonist)” value on dopamine D2 receptors is given as “high affinity”. For the same molecule, the “affinity for the 5-HT2 receptor (antagonist)” value in the experiment on 5-HT2 receptor is listed as “high affinity”. The “affinity for dopamine D1 receptors (antagonist)” value at dopamine D1 receptors is listed as “high affinity”. For the same molecule, the “affinity for α1 adrenoceptors” value with α1 adrenoceptors was “high affinity”. For the same molecule, the “EDS discrimination performance (trials to criterion) vs PCP+vehicle group” value is given as “significantly attenuated” in experiment [1] (1.25 mg/kg s.c., t=3.09, p<0.05) and “significantly attenuated” in experiment [1] (2.5 mg/kg s.c., t=3.80, p<0.01). The “behavior on all other discrimination problems” value in experiment [1] (1.25 or 2.5 mg/kg s.c., all ps>0.05) is reported as “No evidence was found that either dose of Compound I impacted behavior”. Moreover, the “locomotor activity (total number of line crossings)” value in experiment [2] (2.5 mg/kg s.c., p<0.05 compared to vehicle) is given as “significantly reduced”. The “time spent exploring the identical objects, acquisition phase” value in experiment [2] (acute 0.5-2.5 mg/kg s.c.) is given as “no significant difference”. In experiment [2] (acute, all three doses 0.5, 1.25, 2.5 mg/kg s.c.), the “sub-chronic PCP-induced impairment, novel vs familiar object exploration, retention phase” value is reported as “significantly attenuated”. For the same molecule, the “antipsychotic activity in CAR model” value in the experiment on rats was “possesses antipsychotic activity”.

Take `CN1CCN(C2=Nc3cc(Cl)ccc3Nc3ccccc32)CC1` [clozapine, reference compound]: the “PCP-induced reduction of discrimination index” value in [2] (2.5 mg/kg i.p.) is “no significant effect”.

In the case of `O=C(CCCN1CCC(O)(c2ccc(Cl)cc2)CC1)c1ccc(F)cc1` [haloperidol], the “reversing PCP-disrupted attentional performance” value in experiment [3] is given as “ineffective”.

As to `Cc1nc2n(c(=O)c1CCN1CCC(c3noc4cc(F)ccc34)CC1)CCCC2` [risperidone], the “reversing PCP-disrupted attentional performance” value in [3] is “ineffective”.
